Data taken from patent US20040152759A1, “Combination administration of an indolinone with a chemotherapeutic agent for cell proliferation disorders” (priority 2002, published 2004).
Where “and” joins values, the source holds several entries; their conditions need not be identical. Equal values may be shown once. Where a name gives a salt, the structure may show the parent alone. Read-outs that look alike come from different tables or passages of the source.

Key:
[1] = system: LS174t human colon carcinoma; type: in vivo; conditions: Day 23
Procedure: Methods for LS174t Human Colon Cancer Model
(§1) 1×10^5 to 1×10^6 tumor cells were injected into the subcutaneous region of the hind flank of female nu/nu mice (n=10). Tumor growth was monitored twice a week for 2-4 weeks by caliper measurement.
(§2) Tumors were grown to a volume of approximately 100 mm^3 prior to dosing.

[2] = system: NCI-H526 SCLC cells; experiment: NCI-H526 small cell lung carcinoma subcutaneous xenograft model; type: in vivo, human (xenograft in athymic nu/nu mice); conditions: dosing began day 18 after implantation
Procedure: Methods for NCI-H526-Human Small Cell Lung Carcinoma Model
1×10^5 to 1×10^6 tumor cells were injected into the subcutaneous region of the hind flank of female nu/nu mice (n=10). Tumor growth was monitored twice a week for 2-4 weeks by caliper measurements.
NCI-H526 SCLC cells were cultured using standard technique in RPMI 1640 supplemented with 10% fetal bovine serum, 2 mM glutamine, 1 mM sodium pyruvate (Life Technologies Inc., Gaithersburg, Md.), and maintained routinely in a humidified chamber at 37° C. and 5% carbon dioxide.
Cells to be implanted in mice were harvested from cell culture flasks during exponential growth, washed once with sterile phosphate-buffered saline (PBS), counted, and resuspended in PBS to a suitable concentration prior to implantation.
Nine to twelve week old female athymic nu/nu mice purchased from Charles River Laboratories (Wilmington, Mass.) were used.
Mice received subcutaneous injections into the hind flank on Day 0 with 5×10^6 NCI-H526 cells. Subcutaneous tumor-bearing athymic mice (250-300 mm^3 tumor volume) were treated either PO once daily with Compound 1 to the end of the study, intraperitoneally once daily with Cisplatin for the first 5 days, or a combination of the two. […] Tumor growth was measured twice weekly using Vernier calipers for the duration of the treatment. Tumor volumes were calculated as the product of length× width× height.

[3] = system: MX-1 human breast carcinoma; type: in vivo
Source text: Methods for MX1 Human Breast Cancer Model
Mice/Husbandry: Female nu/nu mice (Harlan), 13 weeks of age (at pair-match; Day 1), were fed ad libitum water and an irradiated standard rodent diet. Mice were housed in static microisolators on a 12-hour light cycle. The animal care and use program specifically complies with recommendations of the Guide for Care and Use of Laboratory Animals with respect to restraint, husbandry, surgical procedures, feed and fluid regulation, and veterinary care is AAALAC accredited.
Tumor Implantation: Mice were implanted subcutaneously with 1 mm^3 MX-1 human breast carcinoma fragments in the flank. Tumors were monitored initially twice weekly, and then daily as the neoplasms reached the desired size, approximately 100 mg. […] Estimated tumor weight was calculated using the formula:
Tumor Weight(mg)=w^2×L divided by 2
where w=width and L=length in mm of a MX-1 carcinoma.
as §2
This example evaluates the effects of combined treatment of Compound 1 and Docetaxel on efficacy and toxicity in a human breast cancer model. Tumors were grown to a volume of approximately 100 mm^3 prior to dosing.
This example evaluates the effects of combined treatment of Compound 1 and 5-FU on efficacy and toxicity in a human breast cancer model
as §2
This example evaluates the effects of combined treatment of Compound 1 and Doxorubicin Hydrochloride on efficacy and toxicity in a human breast cancer model.
Tumors were grown to a volume of approximately 100 mm^3 prior to dosing. […] (see FIG. 6).

[4] = system: HT-29 human colon carcinoma; type: in vivo; conditions: Compound 1 20 mg/kg PO QD to end, monotherapy, Day 38
Procedure: Methods for HT-29 Human Colon Cancer Model
as §1, §2

[5] = system: MDA-MB-435 tumor cells; experiment: MDA-MB-435 orthotopic human breast carcinoma bone marrow colonization model (survival); type: in vivo, human (xenograft in nu/nu mice); conditions: vehicle 46 days
Procedure: Methods for the MDA-MB-435 Human Breast Cancer Model
1×10^5 MDA-MB-435 tumor cells were injected into the left cardiac ventricle of female nu/nu mice (n=10). Mice were monitored for weight loss (>20%) and hind limb paralysis as an indicator of bone marrow colonization.
This example evaluates the effects of combined treatment of Compound 1 and Docetaxel on efficacy and toxicity in a human breast cancer model. Efficacy is indicated by improved survival, which, in turn, is indicated by hind-limb paralysis or weight loss (>20%) due to bone marrow colonization of tumor cells.
Tumor cells were injected into the mammary fat pad of female nu/nu mice and mice were monitored for weight loss (>20%) and hind limb paralysis as an indicator of bone marrow colonization of tumor cells.
Tumor cells were injected into the left cardiac ventricle of female nu/nu mice and mice were monitored for weight loss (>20%) and hind limb paralysis as an indicator of bone marrow colonization

In the case of `CCc1c2c(nc3ccc(OC(=O)N4CCC(N5CCCCC5)CC4)cc13)-c1cc3c(c(=O)n1C2)COC(=O)[C@]3(O)CC` [CPT-11, Irinotecan, reference compound], the “% Inhibition” value ([1]; CPT-11 100 mg/kg IP QWK x 3, monotherapy, 100 mg/kg) is reported as 64% and 63.6%.
`N.N.[Cl][Pt][Cl]` [Cisplatin, reference compound] was tested, and the “Day tumor reached 900 mm^3” value ([2]; Cisplatin 1.5 mg/kg IP QD x 5, monotherapy) was 48 days.
In the case of `CCN(CC)CCNC(=O)c1c(C)[nH]c(/C=C2\C(=O)Nc3ccc(F)cc32)c1C` [Compound 1, 5-(5-Fluoro-2-oxo-1,2-dihydroindol-3-ylidenemethyl)-2,4-dimethyl-1H-pyrrole-3-carboxylic acid(2-diethylamino-ethyl)amide], the “% Inhibition” value ([3]; Biological Example 1, Compound 1 40 mg/kg PO QD to end, monotherapy, Day 20, 40 mg/kg) is reported as 52% and 53%, the “% Inhibition” value ([3]; Biological Example 2, Compound 1 40 mg/kg PO QD to end, monotherapy, Day 17) is reported as 63% and the “% Inhibition” value ([3]; Biological Example 3, Compound 1 40 mg/kg PO QD to end, monotherapy, Day 15) is reported as 57%. The “% Inhibition” value ([3]; Biological Example 4, Compound 1 40 mg/kg PO QD to end, monotherapy, Day 14) was 62%, the “% Inhibition” value [4] was 78% and 77.8% and the “Day tumor reached 900 mm^3” value ([2]; Compound 1 40 mg/kg PO QD, monotherapy) was 41 days. The “Median Survival” value ([5]; Compound 1 40 mg/kg PO QD to end, monotherapy) was 52 days and the “% Inhibition” value ([1]; Compound 1 40 mg/kg PO QD to end, monotherapy, 40 mg/kg) was 68% and 67.9%.
In the case of `O=c1[nH]cc(F)c(=O)[nH]1` [Compound 5-FU, 5-Fluorouracil], the “% Inhibition” value ([3]; Biological Example 3, 5-FU 100 mg/kg IV QWK x 3, monotherapy, Day 15) is reported as 45%.
With `CC(=O)O[C@@]12CO[C@@H]1C[C@H](O)[C@@]1(C)C(=O)[C@H](O)C3=C(C)[C@@H](OC(=O)[C@H](O)[C@@H](NC(=O)OC(C)(C)C)c4ccccc4)C[C@@](O)([C@@H](OC(=O)c4ccccc4)[C@H]21)C3(C)C` [Docetaxel] the “% Inhibition” value ([3]; Biological Example 1, Docetaxel 10 mg/kg IV QWK x 3, monotherapy, Day 16) was 60%, the “% Inhibition” value ([3]; Biological Example 1, Docetaxel 15 mg/kg IV QWK x 3, monotherapy, Day 16) was 95% and the “% Inhibition” value ([3]; Biological Example 2, Docetaxel 10 mg/kg IV QWK x 3, monotherapy, Day 14) was 36%. For the same compound, the “% Inhibition” value ([3]; Biological Example 2, Docetaxel 15 mg/kg IV QWK x 3, monotherapy, Day 17) was 90% and the “Median Survival” value ([5]; Docetaxel 5 mg/kg IP QWK x 3, monotherapy) was 52 days.
In the case of `COc1cccc2c1C(=O)c1c(O)c3c(c(O)c1C2=O)C[C@@](O)(C(=O)CO)C[C@@H]3O[C@H]1C[C@H](N)[C@H](O)[C@H](C)O1` [Doxorubicin Hydrochloride], the “% Inhibition” value ([3]; Biological Example 4, Doxorubicin Hydrochloride 4 mg/kg IV QOD x 3, monotherapy, Day 14) is reported as 48%.
